Counter-ions that a name gives are not always drawn.
How the values were obtained:
primary fibromyalgia = assay: Treatment of patients with primary fibromyalgia; assay type: in vivo; conditions: 16 patients, same conditions as migraine tests (5 mg daily)
Text: Systemic pain of muscles, tendons, viscera (oesophagus, stomach, colon); these syndromes are considered particularly difficult to hale.

[1] = test system: migraine attacks longer than 72 h; assay: Acute treatment of patients with migraine attacks longer than 72 h; assay type: in vivo; conditions: 8 patients, 20 mg acutely given
[2] = test system: pain syndromes caused by denervation or amputation; assay: Treatment of patients with pain syndromes caused by denervation; assay type: in vivo; conditions: five of nine patients, no advantage after antiinflammatory analgesics or opioids; same conditions as above (5 mg daily)
Description: In the pain syndromes caused by denervation or amputation pain develops on the limb or body part which is denervated and therefore is insensible to nociceptive stimuli (“painful anaesthesia”).
Nine patients who had no advantages after treatment with antiinflammatory analgesica or opioids were tested in the same conditions as above described.

[3] = human, in vivo

## COc1cc2c(cc1OC)C(=O)C(CC1CCN(Cc3ccccc3)CC1)C2 (centres unmarked) [Donepezil hydrochloride, 1H-Inden-1-one, 2,3-dihydro-5,6-dimethoxy-2-[[1-(phenylmethyl)4-piperidinyl]methyl]-, hydrochloride]
Primary fibromyalgia
  cases treated with improvement of the patient's conditions: 60%
  cases with total disappearance of the pain: 10%
[1]
  results of acute treatment of migraine attacks: highly satisfactory
[2]
  improvement of conditions: 50-80%
[3]
  tolerance to the treatment: high tolerance

Reference: patent US6608088B1, “Use of donerezil for the treatment of functional and/or organic pain syndromes” (priority 1998, dated 2003)
